Results taken from patent publication US9302999B2, “Substituted triazoles as herbicides” (E. I. DU PONT DE NEMOURS AND COMPANY, priority 2012, dated 2016).

How the values were obtained:
Type in all cases: in vivo
rice (Oryza sativa) = experiment: Test B flooded paddy: rice; conditions: Flood; 125 g ai/ha; applied to paddy water at 2-leaf stage; visually evaluated after 13 to 15 days
Outline: (§1)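 Response scored visually, 0–100 relative to controls, 13–15 days after the compound was applied into paddy water; plants were at the 2-leaf stage in pots kept flooded to 3 cm.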

[1] = system: barnyardgrass (Echinochloa crus-galli); experiment: Test B flooded paddy: barnyardgrass; conditions: Flood; 125 g ai/ha; applied to paddy water at 2-leaf stage; visually evaluated after 13 to 15 days
Outline: as §1

[2] = system: blackgrass (Alopecurus myosuroides); experiment: Test C pre-/postemergence: blackgrass
Outline: (§2)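 Preemergence on seeds in loam/sand, postemergence on 2–18 cm (1–4-leaf) plants in peat-based medium; compounds in non-phytotoxic solvent with surfactant. After 13–15 days in greenhouse, visual rating versus controls, 0 (no effect) to 100 (complete control).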

[3] = system: winter wheat (Triticum aestivum); experiment: Test C pre-/postemergence: winter wheat
Outline: as §2

corn (Zea mays) = experiment: Test C pre-/postemergence: corn
Outline: as §2

[4] = system: foxtail, giant (giant foxtail, Setaria faberii); experiment: Test C pre-/postemergence: foxtail, giant
Outline: as §2

[5] = system: johnsongrass (Sorghum halepense); experiment: Test C pre-/postemergence: johnsongrass
Outline: as §2

kochia (Kochia scoparia) = experiment: Test C pre-/postemergence: kochia; conditions: Postemergence
Outline: as §2

[6] = system: pigweed (Amaranthus retroflexus); experiment: Test C pre-/postemergence: pigweed
Outline: as §2

soybean (Glycine max) = experiment: Test C pre-/postemergence: soybean
Outline: as §2

[7] = system: velvetleaf (Abutilon theophrasti); experiment: Test C pre-/postemergence: velvetleaf
Outline: as §2

[8] = Postemergence, 31 g ai/ha, scale 0 to 100 (0 no effect, 100 complete control)
[9] = Postemergence, 62 g ai/ha, scale 0 to 100 (0 no effect, 100 complete control)
[10] = Postemergence, 125 g ai/ha, scale 0 to 100, 0 no effect, 100 complete control
[11] = Postemergence, 250 g ai/ha, scale 0 to 100
[12] = Preemergence, 31 g ai/ha, scale 0 (no effect) to 100 (complete control)
[13] = Preemergence, 62 g ai/ha, scale of 0 to 100, 0 is no effect, 100 is complete control
[14] = Preemergence, 125 g ai/ha, scale 0 to 100, 0 no effect, 100 complete control
[15] = Preemergence, 250 g ai/ha, scale 0 to 100, 0 no effect, 100 complete control
[16] = Postemergence, 250 g ai/ha, scale 0 to 100 (0 no effect, 100 complete control)

CCCc1nn(-c2ccc(F)cc2F)nc1Oc1ccnc(C(F)(F)F)c1 [Compound 179] was tested, and the “Plant response rating, Rice (0 to 100 scale, 0 is no effect, 100 is complete control)” value (rice (Oryza sativa)) was 35, the “Plant response rating, Barnyardgrass (0 to 100 scale, 0 is no effect, 100 is complete control)” value [1] was 0 and the “Plant response rating, Blackgrass” value [2, 8] was 30. For the same compound, the “Plant response rating, Blackgrass” value [2, 9] was 50, the “Plant response rating, Blackgrass” value [2, 10] was 55 and the “Plant response rating, Blackgrass” value [2, 11] was 60. The “Plant response rating, Blackgrass” value [2, 12] was 80, the “Plant response rating, Blackgrass” value [2, 13] was 100 and the “Plant response rating, Blackgrass” value [2, 14] was 100. The “Plant response rating, Blackgrass” value [2, 15] was 100, the “Plant response rating, Wheat” value [3, 8] was 5 and the “Plant response rating, Wheat” value [3, 9] was 10. The “Plant response rating, Wheat” value [3, 10] was 15, the “Plant response rating, Wheat” value [3, 16] was 15 and the “Plant response rating, Wheat” value [3, 12] was 5. The “Plant response rating, Wheat” value [3, 13] was 15, the “Plant response rating, Wheat” value [3, 14] was 50 and the “Plant response rating, Wheat” value [3, 15] was 55. For the same compound, the “Plant response rating, Corn” value (corn (Zea mays); [8]) was 15, the “Plant response rating, Corn” value (corn (Zea mays); [9]) was 15 and the “Plant response rating, Corn” value (corn (Zea mays); [10]) was 15. For the same compound, the “Plant response rating, Corn” value (corn (Zea mays); [11]) was 15, the “Plant response rating, Corn” value (corn (Zea mays); [12]) was 5 and the “Plant response rating, Corn” value (corn (Zea mays); [13]) was 20. The “Plant response rating, Corn” value (corn (Zea mays); [14]) was 20, the “Plant response rating, Corn” value (corn (Zea mays); [15]) was 20 and the “Plant response rating, Foxtail, Giant” value [4, 8] was 35. The “Plant response rating, Foxtail, Giant” value [4, 9] was 40, the “Plant response rating, Foxtail, Giant” value [4, 10] was 55 and the “Plant response rating, Foxtail, Giant” value [4, 11] was 80. For the same compound, the “Plant response rating, Foxtail, Giant” value [4, 12] was 100, the “Plant response rating, Foxtail, Giant” value [4, 13] was 100 and the “Plant response rating, Foxtail, Giant” value [4, 14] was 100. The “Plant response rating, Foxtail, Giant” value [4, 15] was 100, the “Plant response rating, Johnsongrass” value [5, 8] was 10 and the “Plant response rating, Johnsongrass” value [5, 9] was 20. For the same compound, the “Plant response rating, Johnsongrass” value [5, 10] was 20, the “Plant response rating, Johnsongrass” value [5, 16] was 55 and the “Plant response rating, Johnsongrass” value [5, 12] was 5. The “Plant response rating, Johnsongrass” value [5, 13] was 60, the “Plant response rating, Johnsongrass” value [5, 14] was 95 and the “Plant response rating, Johnsongrass” value [5, 15] was 100. For the same compound, the “Plant response rating, Kochia” value (kochia (Kochia scoparia); 31 g ai/ha, scale 0 to 100 (0 no effect, 100 complete control)) was 80, the “Plant response rating, Kochia” value (kochia (Kochia scoparia); 62 g ai/ha, scale 0 to 100 (0 no effect, 100 complete control)) was 90 and the “Plant response rating, Kochia” value (kochia (Kochia scoparia); 125 g ai/ha, scale 0 to 100, 0 no effect, 100 complete control) was 90. For the same compound, the “Plant response rating, Kochia” value (kochia (Kochia scoparia); 250 g ai/ha, scale 0 to 100 (0 no effect, 100 complete control)) was 90, the “Plant response rating, Pigweed” value [6, 8] was 95 and the “Plant response rating, Pigweed” value [6, 9] was 98. The “Plant response rating, Pigweed” value [6, 10] was 98, the “Plant response rating, Pigweed” value [6, 16] was 100 and the “Plant response rating, Pigweed” value [6, 12] was 100. The “Plant response rating, Pigweed” value [6, 13] was 100, the “Plant response rating, Pigweed” value [6, 14] was 100 and the “Plant response rating, Pigweed” value [6, 15] was 100. For the same compound, the “Plant response rating, Soybean” value (soybean (Glycine max); [8]) was 30, the “Plant response rating, Soybean” value (soybean (Glycine max); [9]) was 35 and the “Plant response rating, Soybean” value (soybean (Glycine max); [10]) was 45. For the same compound, the “Plant response rating, Soybean” value (soybean (Glycine max); [16]) was 45, the “Plant response rating, Soybean” value (soybean (Glycine max); [12]) was 0 and the “Plant response rating, Soybean” value (soybean (Glycine max); [13]) was 10. For the same compound, the “Plant response rating, Soybean” value (soybean (Glycine max); [14]) was 10, the “Plant response rating, Soybean” value (soybean (Glycine max); [15]) was 25 and the “Plant response rating, Velvetleaf” value [7, 8] was 55. For the same compound, the “Plant response rating, Velvetleaf” value [7, 9] was 75, the “Plant response rating, Velvetleaf” value [7, 10] was 75 and the “Plant response rating, Velvetleaf” value [7, 16] was 75. For the same compound, the “Plant response rating, Velvetleaf” value [7, 12] was 30, the “Plant response rating, Velvetleaf” value [7, 13] was 75 and the “Plant response rating, Velvetleaf” value [7, 14] was 80. For the same compound, the “Plant response rating, Velvetleaf” value [7, 15] was 80.
